Results taken from US10093670B2, “Azabenzimidazole derivative having AMPK-activating activity” (Shionogi & Co., Ltd., priority 2011, dated 2018).

Target: T1, human AMPK α1β1γ1 enzyme (Homo sapiens, UniProt Q13131+Q9Y478)
T1 construct: purchased Carna Biosciences, Inc
Assay: Evaluation of AMPK activator, Test Example 1 (mobility-shift kinase assay, FL-Peptide 7)
Assay type: biochemical
Conditions: for EC150 (compound concentration showing 150% relative to the control (100%)): human AMPK α1β1γ1, 25° C., 2 hours, 0.2 mM ATP final; for Emax: human AMPK α1β1γ1, relative to control (100%), read-out: Emax (maximum rate of increase in activity within the measurement range)
Method: The obtained liquid was left to stand for 10 minutes.
The obtained liquid was allowed to react at 25° C. for 2 hours, and 10 μl of 20 mM EDTA was then added thereto to stop the reaction.
To detect phosphorylated fluorescent substrates, the reaction liquid was applied to a measuring device, LabChip EZ Reader II manufactured by Caliper Life Science, Inc., for detecting fluorescence by using differences in mobility due to differences in charge. The setting conditions for the device were pressure, −1.5 PSI; upstream voltage, −2250 V; downstream voltage, −400 V; post sample buffer sip time, 40 seconds; final delay, 120 seconds; and peak order, Product First.
A conversion rate was calculated from the peak heights of the resulting substrate and product. The conversion rate when not containing a compound was used as a control, and a concentration dependent curve was made by plotting the rate of increase in activity to the control at each concentration of a compound.

T1 sequence (Q13131 10-559 limits assumed): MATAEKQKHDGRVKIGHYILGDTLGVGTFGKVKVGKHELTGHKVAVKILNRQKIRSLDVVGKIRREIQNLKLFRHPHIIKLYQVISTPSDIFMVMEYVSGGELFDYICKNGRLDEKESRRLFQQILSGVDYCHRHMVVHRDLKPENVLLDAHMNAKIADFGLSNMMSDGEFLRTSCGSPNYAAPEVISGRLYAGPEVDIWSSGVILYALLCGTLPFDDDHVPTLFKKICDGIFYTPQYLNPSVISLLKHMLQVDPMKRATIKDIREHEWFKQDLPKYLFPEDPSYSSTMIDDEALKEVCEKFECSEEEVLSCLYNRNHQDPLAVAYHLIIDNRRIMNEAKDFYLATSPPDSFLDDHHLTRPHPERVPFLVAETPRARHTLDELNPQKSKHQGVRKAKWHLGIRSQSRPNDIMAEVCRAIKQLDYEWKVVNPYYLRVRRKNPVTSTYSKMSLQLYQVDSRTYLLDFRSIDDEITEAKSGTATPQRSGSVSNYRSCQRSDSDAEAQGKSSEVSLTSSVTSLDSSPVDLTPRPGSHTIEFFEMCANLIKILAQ
T1 sequence (Q9Y478 whole entry): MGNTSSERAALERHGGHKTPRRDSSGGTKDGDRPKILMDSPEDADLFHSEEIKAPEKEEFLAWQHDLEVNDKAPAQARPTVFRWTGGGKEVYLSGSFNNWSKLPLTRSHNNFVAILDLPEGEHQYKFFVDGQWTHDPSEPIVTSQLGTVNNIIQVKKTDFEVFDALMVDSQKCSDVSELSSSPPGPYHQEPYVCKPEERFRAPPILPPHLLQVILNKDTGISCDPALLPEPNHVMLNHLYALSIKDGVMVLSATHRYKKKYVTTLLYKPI
T1 sequence (P54619 whole entry partner): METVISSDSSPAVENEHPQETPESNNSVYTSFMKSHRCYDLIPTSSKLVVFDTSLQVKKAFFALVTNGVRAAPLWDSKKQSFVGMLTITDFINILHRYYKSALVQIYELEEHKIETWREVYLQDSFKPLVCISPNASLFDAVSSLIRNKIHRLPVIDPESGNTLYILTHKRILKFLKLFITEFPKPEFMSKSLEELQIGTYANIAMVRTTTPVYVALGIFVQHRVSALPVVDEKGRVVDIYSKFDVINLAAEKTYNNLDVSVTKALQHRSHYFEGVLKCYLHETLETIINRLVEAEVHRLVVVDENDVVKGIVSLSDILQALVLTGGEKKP

Compound | EC150 (compound concentration showing 150% relative to the control (100%)) | Emax
O=C(O)CSc1nc2nc(-c3ccc(N4CCOCC4)cc3)c(Cl)cc2[nH]1 [Compound I-1-4] | 160 nM | 283%
O=C(O)COc1nc2nc(-c3ccc(N4CCOCC4)cc3)c(Cl)cc2[nH]1 [Compound I-1-10] | 390 nM | 270%
O=C(O)CN1CCC(Oc2nc3nc(-c4ccc(N5CCOCC5)cc4)c(Cl)cc3[nH]2)CC1.O=CO [Compound I-1-11] | 2100 nM | 238%
Oc1cc(COc2nc3nc(-c4ccc(N5CCOCC5)cc4)c(Cl)cc3[nH]2)on1 [Compound I-1-12] | 320 nM | 263%
O=C(COc1nc2nc(-c3ccc(N4CCOCC4)cc3)c(Cl)cc2[nH]1)N1CCC(F)(F)CC1 [Compound I-1-21] | 730 nM | 284%
CN1CCC(Oc2nc3nc(-c4ccc(N5CCOCC5)cc4)c(Cl)cc3[nH]2)CC1 [Compound I-1-25] | 3100 nM | 226%
CC(C#N)Oc1nc2nc(-c3ccc(N4CCOCC4)cc3)c(Cl)cc2[nH]1 (stereo not shown) [Compound I-1-27] | 310 nM | 226%
CC(Oc1nc2nc(-c3ccc(N4CCOCC4)cc3)c(Cl)cc2[nH]1)c1noc(=O)[nH]1 (stereo not shown) [Compound I-1-28] | 210 nM | 231%
CS(=O)(=O)N1CCC(Oc2nc3nc(-c4ccc(N5CCOCC5)cc4)c(Cl)cc3[nH]2)CC1 [Compound I-1-32] | 200 nM | 280%
CC(Oc1nc2nc(-c3ccc(N4CCOCC4)cc3)c(Cl)cc2[nH]1)C(N)=O (stereo not shown) [Compound I-1-37] | 910 nM | 228%
CC(Sc1nc2nc(-c3ccc(N4CCOCC4)cc3)c(Cl)cc2[nH]1)C(=O)O (stereo not shown) [Compound I-1-39] | 160 nM | 258%
CC(C)(Sc1nc2nc(-c3ccc(N4CCOCC4)cc3)c(Cl)cc2[nH]1)C(=O)O [Compound I-1-57] | 140 nM | 277%
CC(Cc1nc2nc(-c3ccc(N4CCOCC4)cc3)c(Cl)cc2[nH]1)C(=O)O (stereo not shown) [Compound I-1-62] | 540 nM | 228%
O=C1CCC(Oc2nc3nc(-c4ccc(N5CCOCC5)cc4)c(Cl)cc3[nH]2)CN1 (stereo not shown) [Compound I-1-68] | 4900 nM | 174%
O=C(O)[C@H]1CC[C@H](Oc2nc3nc(-c4ccc(-c5ccccc5)cc4)c(Cl)cc3[nH]2)CC1 [Compound I-2-30] | 650 nM | 178%
NC(=O)[C@H]1CC[C@H](Oc2nc3nc(-c4ccc(N5CCOCC5)cc4)c(Cl)cc3[nH]2)CC1 [Compound I-2-33] | 70 nM | 236%
O=C(O)C[C@H]1CC[C@H](Oc2nc3nc(-c4ccc(N5CCOCC5)cc4)c(Cl)cc3[nH]2)CC1 [Compound I-2-40] | 51 nM | 293%
CC(=O)NC1CC=C(c2ccc(-c3nc4nc(O[C@H]5CC[C@H](C(=O)O)CC5)[nH]c4cc3Cl)cc2)CC1 (stereo partly shown) [Compound I-2-58] | 650 nM | 169%
CC(=O)N1CC=C(c2ccc(-c3nc4nc(O[C@H]5CC[C@H](C(=O)O)CC5)[nH]c4cc3Cl)cc2)CC1 [Compound I-2-59] | 2300 nM | 181%
O=C(O)[C@H]1CC[C@H](Oc2nc3nc(-c4ccc(-c5ccccc5O)cc4)c(Cl)cc3[nH]2)CC1 [Compound I-2-60] | 49 nM | 205%
